Test results published in PubChem BioAssay (NCI).
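A five-concentration, 48-hour dose response in 96-well plates underlies each endpoint, interpolated linearly between surrounding concentrations. The concentration for 50% growth inhibition is given as GI50. TGI: total growth inhibition.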

Tests used:
Experiment in all cases: DTP human tumour cell line panel, 48 h
786-0 renal = system: 786-0 renal
A498 renal = system: A498 renal
A549 NSCLC = system: A549 NSCLC
ACHN renal = system: ACHN renal
BT-549 breast = system: BT-549 breast
CAKI-1 renal = system: CAKI-1 renal
CCRF-CEM leukemia = system: CCRF-CEM leukemia
COLO 205 colon = system: COLO 205 colon
DU-145 prostate = system: DU-145 prostate
EKVX NSCLC = system: EKVX NSCLC
HCC-2998 colon = system: HCC-2998 colon
HCT-116 colon = system: HCT-116 colon
HCT-15 colon = system: HCT-15 colon
HL-60(TB) leukemia = system: HL-60(TB) leukemia
HOP-92 NSCLC = system: HOP-92 NSCLC
HS 578T breast = system: HS 578T breast
HT29 colon = system: HT29 colon
IGROV1 ovarian = system: IGROV1 ovarian
K-562 leukemia = system: K-562 leukemia
KM12 colon = system: KM12 colon
LOX IMVI melanoma = system: LOX IMVI melanoma
M14 melanoma = system: M14 melanoma
MALME-3M melanoma = system: MALME-3M melanoma
MCF7 breast = system: MCF7 breast
MDA-MB-231 breast = system: MDA-MB-231 breast
MDA-MB-435 = system: MDA-MB-435
MOLT-4 leukemia = system: MOLT-4 leukemia
NCI-H226 lung = system: NCI-H226 lung
NCI-H460 lung = system: NCI-H460 lung
NCI-H522 lung = system: NCI-H522 lung
NCI/ADR-RES ovarian = system: NCI/ADR-RES ovarian
OVCAR-3 ovarian = system: OVCAR-3 ovarian
OVCAR-4 ovarian = system: OVCAR-4 ovarian
OVCAR-5 ovarian = system: OVCAR-5 ovarian
OVCAR-8 ovarian = system: OVCAR-8 ovarian
PC-3 prostate = system: PC-3 prostate
RPMI-8226 leukemia = system: RPMI-8226 leukemia
SF-268 CNS = system: SF-268 CNS
SF-295 CNS = system: SF-295 CNS
SF-539 CNS = system: SF-539 CNS
SK-MEL-2 melanoma = system: SK-MEL-2 melanoma
SK-MEL-28 melanoma = system: SK-MEL-28 melanoma
SK-MEL-5 melanoma = system: SK-MEL-5 melanoma
SK-OV-3 ovarian = system: SK-OV-3 ovarian
SN12C renal = system: SN12C renal
SNB-19 CNS = system: SNB-19 CNS
SW-620 colon = system: SW-620 colon
T-47D breast = system: T-47D breast
TK-10 renal = system: TK-10 renal
U251 CNS = system: U251 CNS
UACC-257 melanoma = system: UACC-257 melanoma
UACC-62 melanoma = system: UACC-62 melanoma
UO-31 renal = system: UO-31 renal

In the case of `O=C(CN1CCN(Cc2ccccc2Cl)CC1)NC1CC(=O)c2c(Br)sc(Br)c21` (stereo unspecified), the GI50 (786-0 renal) is reported as 19.4 µM, the TGI (786-0 renal) is reported as 40.4 µM and the GI50 (A498 renal) is reported as 20.5 µM. The TGI (A498 renal) was 35.4 µM, the GI50 (A549 NSCLC) was 41.9 µM and the TGI (A549 NSCLC) was over 100 µM. For the same compound, the GI50 (ACHN renal) was 35.1 µM, the TGI (ACHN renal) was over 100 µM and the GI50 (BT-549 breast) was 19.4 µM. The TGI (BT-549 breast) was 35.7 µM, the GI50 (CAKI-1 renal) was 19.9 µM and the TGI (CAKI-1 renal) was 37.6 µM. It also gave a GI50 (CCRF-CEM leukemia) of 20.7 µM, a TGI (CCRF-CEM leukemia) of 54.8 µM and a GI50 (COLO 205 colon) of 21.2 µM. The TGI (COLO 205 colon) was 38.4 µM, the GI50 (DU-145 prostate) was 18.8 µM and the TGI (DU-145 prostate) was 33.6 µM. For the same compound, the GI50 (EKVX NSCLC) was 21.7 µM, the TGI (EKVX NSCLC) was 42 µM and the GI50 (HCC-2998 colon) was 19.8 µM. The TGI (HCC-2998 colon) was 35.1 µM, the GI50 (HCT-116 colon) was 17.3 µM and the TGI (HCT-116 colon) was 32.9 µM. For the same compound, the GI50 (HCT-15 colon) was 18 µM, the TGI (HCT-15 colon) was 34.1 µM and the GI50 (HL-60(TB) leukemia) was 23.3 µM. It also gave a TGI (HL-60(TB) leukemia) of 57.4 µM, a GI50 (HOP-92 NSCLC) of 14.1 µM and a TGI (HOP-92 NSCLC) of 31.6 µM. It also gave a GI50 (HS 578T breast) of 29.4 µM, a TGI (HS 578T breast) of 71.5 µM and a GI50 (HT29 colon) of 18 µM. For the same compound, the TGI (HT29 colon) was 32.2 µM, the GI50 (IGROV1 ovarian) was 18.2 µM and the TGI (IGROV1 ovarian) was 34.5 µM. For the same compound, the GI50 (K-562 leukemia) was 29.6 µM, the TGI (K-562 leukemia) was over 100 µM and the GI50 (KM12 colon) was 20.9 µM. It also gave a TGI (KM12 colon) of 40.6 µM, a GI50 (LOX IMVI melanoma) of 18.6 µM and a TGI (LOX IMVI melanoma) of 35.8 µM. It also gave a GI50 (M14 melanoma) of 17.2 µM, a TGI (M14 melanoma) of 31.7 µM and a GI50 (MALME-3M melanoma) of 21.6 µM. It also gave a TGI (MALME-3M melanoma) of 43.8 µM, a GI50 (MCF7 breast) of 18.1 µM and a TGI (MCF7 breast) of 33.8 µM. The GI50 (MDA-MB-231 breast) was 21.1 µM, the TGI (MDA-MB-231 breast) was 39.8 µM and the GI50 (MDA-MB-435) was 21.5 µM. It also gave a TGI (MDA-MB-435) of 52.5 µM, a GI50 (MOLT-4 leukemia) of 27.1 µM and a TGI (MOLT-4 leukemia) of 85.3 µM. It also gave a GI50 (NCI-H226 lung) of 23.9 µM, a TGI (NCI-H226 lung) of 91.8 µM and a GI50 (NCI-H460 lung) of 18.3 µM. The TGI (NCI-H460 lung) was 35.2 µM, the GI50 (NCI-H522 lung) was 2 µM and the TGI (NCI-H522 lung) was 5.06 µM. It also gave a GI50 (NCI/ADR-RES ovarian) of 19.6 µM, a TGI (NCI/ADR-RES ovarian) of 41.9 µM and a GI50 (OVCAR-3 ovarian) of 20.8 µM. For the same compound, the TGI (OVCAR-3 ovarian) was 43.4 µM, the GI50 (OVCAR-4 ovarian) was 18.9 µM and the TGI (OVCAR-4 ovarian) was 34.4 µM. It also gave a GI50 (OVCAR-5 ovarian) of 51.4 µM, a TGI (OVCAR-5 ovarian) of over 100 µM and a GI50 (OVCAR-8 ovarian) of 24.8 µM. For the same compound, the TGI (OVCAR-8 ovarian) was 54.8 µM, the GI50 (PC-3 prostate) was 16.1 µM and the TGI (PC-3 prostate) was 34.6 µM. The GI50 (RPMI-8226 leukemia) was 16.6 µM, the TGI (RPMI-8226 leukemia) was 38.5 µM and the GI50 (SF-268 CNS) was 19 µM. The TGI (SF-268 CNS) was 36.7 µM, the GI50 (SF-295 CNS) was 25.6 µM and the TGI (SF-295 CNS) was 57.6 µM. For the same compound, the GI50 (SF-539 CNS) was 20.3 µM, the TGI (SF-539 CNS) was 36.1 µM and the GI50 (SK-MEL-2 melanoma) was 15.7 µM. For the same compound, the TGI (SK-MEL-2 melanoma) was 31.4 µM, the GI50 (SK-MEL-28 melanoma) was 18.1 µM and the TGI (SK-MEL-28 melanoma) was 32.2 µM. For the same compound, the GI50 (SK-MEL-5 melanoma) was 20.3 µM, the TGI (SK-MEL-5 melanoma) was 38.7 µM and the GI50 (SK-OV-3 ovarian) was 54.1 µM. The TGI (SK-OV-3 ovarian) was over 100 µM, the GI50 (SN12C renal) was 19.1 µM and the TGI (SN12C renal) was 35.9 µM. The GI50 (SNB-19 CNS) was 18.6 µM, the TGI (SNB-19 CNS) was 33.1 µM and the GI50 (SW-620 colon) was 19.8 µM. For the same compound, the TGI (SW-620 colon) was 36.6 µM, the GI50 (T-47D breast) was 21.6 µM and the TGI (T-47D breast) was 43.9 µM. It also gave a GI50 (TK-10 renal) of 44.3 µM, a TGI (TK-10 renal) of 97.1 µM and a GI50 (U251 CNS) of 19.7 µM. For the same compound, the TGI (U251 CNS) was 35.3 µM, the GI50 (UACC-257 melanoma) was 22.3 µM and the TGI (UACC-257 melanoma) was 44 µM. For the same compound, the GI50 (UACC-62 melanoma) was 16.3 µM, the TGI (UACC-62 melanoma) was 31 µM and the GI50 (UO-31 renal) was 17.4 µM. For the same compound, the TGI (UO-31 renal) was 31.8 µM.
